Patent US20060135800A1, “2-Methylene-19,21-dinor-1alpha-hydroxy-bishomopregnacalciferol” (Wisconsin Alumni Research Foundation, priority 2004, published 2006)
“Also recorded” adds a separate entry of the source.

How the values were obtained:
[1] = PTH suppression in adult rats; assay type: in vivo, rat; conditions: normal rats, ip, 7 consecutive days; FIG. 7
Protocol: (§1) Adult, female Sprague-Dawley rats were obtained from Harlan (Madison, Wis.).
(§2) Animals were randomly assigned to treatment groups (5 animals/group). All doses were administered intraperitoneally in 100 microliters of propylene glycol. Four to seven consecutive doses were given approximately 24 hours apart. Dosing was initiated after the animals had been allowed to acclimate for at least one week.
(§3) Both control and test articles were administered by intraperitoneal injection in 100 microliters for 4-7 consecutive days spaced approximately 24 hours apart. 1,25(OH)2D3 was given for 4 consecutive days, whereas, the test drugs were given for 7 consecutive days.
Twenty-four hours after the final dose, blood was collected from the tail artery and the concentration of bioactive serum PTH was measured using the rat BioActive Intact PTH ELISA Kit from Immutopics, Inc. (San Clemente, Calif.).

[2] = molecular target: T1, full-length recombinant rat vitamin D receptor (Rattus norvegicus, UniProt P13053); experiment: Vitamin D receptor binding, competition with [3H]-1,25-(OH)2-D3
T1 construct: Full-length recombinant rat receptor was expressed in E. coli; His tag (C); made in house; host or cells: E. coli BL21(DE3) Codon Plus RIL
T1 sequence (P13053 1-423): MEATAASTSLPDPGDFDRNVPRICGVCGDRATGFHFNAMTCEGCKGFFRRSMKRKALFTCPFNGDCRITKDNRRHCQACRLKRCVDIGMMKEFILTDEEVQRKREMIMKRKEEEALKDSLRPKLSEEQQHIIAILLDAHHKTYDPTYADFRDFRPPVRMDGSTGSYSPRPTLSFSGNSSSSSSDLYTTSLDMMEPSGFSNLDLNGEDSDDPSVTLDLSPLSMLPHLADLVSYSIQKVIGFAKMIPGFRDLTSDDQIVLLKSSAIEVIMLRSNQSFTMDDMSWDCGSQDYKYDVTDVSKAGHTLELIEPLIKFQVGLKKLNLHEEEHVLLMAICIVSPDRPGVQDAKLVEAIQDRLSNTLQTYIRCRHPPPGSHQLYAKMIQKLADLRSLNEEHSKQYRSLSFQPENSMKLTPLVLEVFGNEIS
Protocol: Full-length recombinant rat receptor was expressed in E. coli BL21(DE3) Codon Plus RIL cells and purified to homogeneity using two different column chromatography systems. The first system was a nickel affinity resin that utilizes the C-terminal histidine tag on this protein. The protein that was eluted from this resin was further purified using ion exchange chromatography (S-Sepharose Fast Flow). Aliquots of the purified protein were quick frozen in liquid nitrogen and stored at −80° C. until use. For use in binding assays, the protein was diluted in TEDK50 (50 mM Tris, 1.5 mM EDTA, pH 7.4, 5 mM DTT, 150 mM KCl) with 0.1% Chaps detergent. The receptor protein and ligand concentration was optimized such that no more than 20% of the added radiolabeled ligand was bound to the receptor.
Unlabeled ligands were dissolved in ethanol and the concentrations determined using UV spectrophotometry (1,25(OH)2D3: molar extinction coefficient=18,200 and λmax=265 nm; Analogs: molar extinction coefficient=42,000 and λmax=252 nm). Radiolabeled ligand (^3H-1,25(OH)2D3, ˜159 Ci/mmole) was added in ethanol at a final concentration of 1 nM.
Radiolabeled and unlabeled ligands were added to 100 mcl of the diluted protein at a final ethanol concentration of ≦10%, mixed and incubated overnight on ice to reach binding equilibrium. […] Total binding was determined from the tubes containing only radiolabeled ligand.

HL-60 cells = experiment: HL-60 differentiation (nitro blue tetrazolium reduction); assay type: cell-based, human
Protocol: The study drugs were dissolved in ethanol and the concentrations determined using UV spectrophotometry. Serial dilutions were prepared so that a range of drug concentrations could be tested without changing the final concentration of ethanol (≦0.2%) present in the cell cultures.
Human promyelocytic leukemia (HL60) cells were grown in RPMI-1640 medium containing 10% fetal bovine serum. The cells were incubated at 37° C. in the presence of 5% CO2.
HL60 cells were plated at 1.2×10^5 cells/ml. Eighteen hours after plating, cells in duplicate were treated with drug. Four days later, the cells were harvested and a nitro blue tetrazolium reduction assay was performed (Collins et al., 1979; J. Exp. Med. 149:969-974). The percentage of differentiated cells was determined by counting a total of 200 cells and recording the number that contained intracellular black-blue formazan deposits. Verification of differentiation to monocytic cells was determined by measuring phagocytic activity (data not shown).

[3] = Bone calcium mobilization (serum calcium); assay type: in vivo, rat; conditions: rats, ip; even at 100 times the dose of 1α,25-dihydroxyvitamin D3; FIG. 4
Protocol: (§4) Male, weanling Sprague-Dawley rats were placed on Diet 11 (0.47% Ca) diet +AEK for one week followed by Diet 11 (0.02% Ca) +AEK for 3 weeks. The rats were then switched to a diet containing 0.47% Ca for one week followed by two weeks on a diet containing 0.02% Ca. Dose administration began during the last week on 0.02% calcium diet. Four consecutive ip doses were given approximately 24 hours apart. Twenty-four hours after the last dose, blood was collected from the severed neck and the concentration of serum calcium determined as a measure of bone calcium mobilization. The first 10 cm of the intestine was also collected for intestinal calcium transport analysis using the everted gut sac method.

[4] = Intestinal calcium transport (everted gut sac method); assay type: in vivo, rat; conditions: rats, ip; even at 100 times the dose of 1α,25-dihydroxyvitamin D3; FIG. 5
Protocol: as §4

[5] = Serum calcium in adult rats (hypercalcemia); assay type: in vivo, rat; conditions: ip, FIG. 6
Protocol: as §1, §2, §3
Twenty-four hours after the final dose, approximately 1 ml of blood was collected from the tail artery of each experimental animal. The blood was allowed to coagulate at room temperature and then centrifuged at 3000×g for 15 minutes. The serum was transferred to a polypropylene tube and stored frozen at −20° C. The level of calcium was determined by diluting the serum into 0.1% lanthum chloride and measuring the absorbance on an atomic absorption spectrophotometer (Perkin Elmer Model 3110, Shelton, Conn.).

[6] = system: 24-hydroxylase (24Ohase) gene promoter in ROS 17/2.8 (bone) cells; experiment: In vitro transcription assay (24-hydroxylase promoter luciferase reporter); assay type: cell-based; conditions: stably transfected Ros17/2.8 (bone) cells; FIG. 3
Protocol: Transcription activity was measured in ROS 17/2.8 (bone) cells that were stably transfected with a 24-hydroxylase (24Ohase) gene promoter upstream of a luciferase reporter gene (Arbour et al., 1998). Cells were given a range of doses. Sixteen hours after dosing the cells were harvested and luciferase activities were measured using a luminometer. RLU=relative luciferase units.

binding to the recombinant vitamin D receptor, times less active than 1α,25-dihydroxyvitamin D3 ([2]; relative to 1α,25-dihydroxyvitamin D3, FIG. 1): about 5 times
binding to vitamin D receptors (in words) ([2]; summary statement): relatively high binding
SMILES: C=C1[C@H](O)CC(=C/C=C2\CCC[C@]3(C)C(CCC)CC[C@@H]23)C[C@H]1O (stereo in doubt) [2-methylene-19,21-dinor-1α-hydroxy-bishomopregnacalciferol]
suppressing parathyroid hormone levels [1]: significant activity
inducing differentiation of HL-60 cells, times less active than 1α,25-dihydroxyvitamin D3 (HL-60 cells; relative to 1α,25-dihydroxyvitamin D3, FIG. 2): about 15 times
cell differentiation activity (in words) (HL-60 cells; summary statement): relatively high cell differentiation activity
calcemic activity measured by bone calcium mobilization [3]: very low ability to mobilize calcium from bone; also recorded: no calcemic activity
calcemic activity measured by intestinal calcium transport [4]: very low intestinal calcium transport activity; also recorded: no calcemic activity
raising serum calcium concentrations [5]: absence of raising serum calcium concentrations
stimulating transcription of a reporter gene [6]: active
